pIC50: −log10 of the molar value. The source made the active and inactive calls. The rule behind the calls is not given here.
Columns and labels:
HCT-116 = test: Growth inhibition of human HCT116 cells after 72 hrs by MTS assay; type: functional, cell-based; conditions: HCT-116, 72 h
[1] = target: T1, Kinesin-like protein KIF15 (Homo sapiens) (UniProt Q9NS87); test: Inhibition of microtubule-stimulated KIF15 motor domain (1 to 372) (unknown origin) ATPase activity at 6.3 uM
T1 sequence (whole entry): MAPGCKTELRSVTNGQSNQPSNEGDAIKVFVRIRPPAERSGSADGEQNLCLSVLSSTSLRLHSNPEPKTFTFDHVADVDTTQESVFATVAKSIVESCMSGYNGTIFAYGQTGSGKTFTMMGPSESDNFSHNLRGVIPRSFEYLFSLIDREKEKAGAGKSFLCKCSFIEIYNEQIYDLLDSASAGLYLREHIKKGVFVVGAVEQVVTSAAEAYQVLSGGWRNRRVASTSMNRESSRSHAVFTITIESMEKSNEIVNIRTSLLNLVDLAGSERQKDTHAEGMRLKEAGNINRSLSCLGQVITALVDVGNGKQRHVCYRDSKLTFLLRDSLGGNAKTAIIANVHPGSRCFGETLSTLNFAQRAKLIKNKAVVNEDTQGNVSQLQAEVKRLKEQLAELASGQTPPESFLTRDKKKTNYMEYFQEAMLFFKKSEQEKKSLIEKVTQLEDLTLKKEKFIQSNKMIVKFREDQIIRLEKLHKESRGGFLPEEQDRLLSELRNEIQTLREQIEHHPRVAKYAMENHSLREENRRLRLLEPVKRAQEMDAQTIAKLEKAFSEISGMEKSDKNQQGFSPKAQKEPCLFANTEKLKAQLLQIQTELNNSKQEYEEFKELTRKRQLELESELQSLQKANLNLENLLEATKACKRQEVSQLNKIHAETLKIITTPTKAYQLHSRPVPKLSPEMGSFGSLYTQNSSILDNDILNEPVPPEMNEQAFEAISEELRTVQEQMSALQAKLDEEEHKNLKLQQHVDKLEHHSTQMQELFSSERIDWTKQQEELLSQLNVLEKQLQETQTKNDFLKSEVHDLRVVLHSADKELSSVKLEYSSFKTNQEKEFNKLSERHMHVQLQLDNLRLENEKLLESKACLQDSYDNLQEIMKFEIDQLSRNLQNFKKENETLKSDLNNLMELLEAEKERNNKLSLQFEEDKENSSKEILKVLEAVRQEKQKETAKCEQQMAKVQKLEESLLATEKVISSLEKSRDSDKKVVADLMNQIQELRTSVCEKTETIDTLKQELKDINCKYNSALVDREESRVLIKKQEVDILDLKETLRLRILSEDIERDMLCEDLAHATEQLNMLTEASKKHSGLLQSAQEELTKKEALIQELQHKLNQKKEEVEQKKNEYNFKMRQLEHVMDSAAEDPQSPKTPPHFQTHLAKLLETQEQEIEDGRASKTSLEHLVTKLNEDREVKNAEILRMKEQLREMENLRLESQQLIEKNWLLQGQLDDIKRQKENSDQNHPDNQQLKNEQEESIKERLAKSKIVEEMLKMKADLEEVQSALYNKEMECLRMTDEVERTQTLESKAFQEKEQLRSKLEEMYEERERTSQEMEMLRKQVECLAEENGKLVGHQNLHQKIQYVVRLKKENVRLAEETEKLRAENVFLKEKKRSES

[2] = target: T2, Kinesin-like protein KIF23 (Homo sapiens) (UniProt Q02241); test: Inhibition of microtubule-stimulated MKLP1 motor domain (1 to 446) (unknown origin) ATPase activity at 6.3 uM
T2 sequence (whole entry): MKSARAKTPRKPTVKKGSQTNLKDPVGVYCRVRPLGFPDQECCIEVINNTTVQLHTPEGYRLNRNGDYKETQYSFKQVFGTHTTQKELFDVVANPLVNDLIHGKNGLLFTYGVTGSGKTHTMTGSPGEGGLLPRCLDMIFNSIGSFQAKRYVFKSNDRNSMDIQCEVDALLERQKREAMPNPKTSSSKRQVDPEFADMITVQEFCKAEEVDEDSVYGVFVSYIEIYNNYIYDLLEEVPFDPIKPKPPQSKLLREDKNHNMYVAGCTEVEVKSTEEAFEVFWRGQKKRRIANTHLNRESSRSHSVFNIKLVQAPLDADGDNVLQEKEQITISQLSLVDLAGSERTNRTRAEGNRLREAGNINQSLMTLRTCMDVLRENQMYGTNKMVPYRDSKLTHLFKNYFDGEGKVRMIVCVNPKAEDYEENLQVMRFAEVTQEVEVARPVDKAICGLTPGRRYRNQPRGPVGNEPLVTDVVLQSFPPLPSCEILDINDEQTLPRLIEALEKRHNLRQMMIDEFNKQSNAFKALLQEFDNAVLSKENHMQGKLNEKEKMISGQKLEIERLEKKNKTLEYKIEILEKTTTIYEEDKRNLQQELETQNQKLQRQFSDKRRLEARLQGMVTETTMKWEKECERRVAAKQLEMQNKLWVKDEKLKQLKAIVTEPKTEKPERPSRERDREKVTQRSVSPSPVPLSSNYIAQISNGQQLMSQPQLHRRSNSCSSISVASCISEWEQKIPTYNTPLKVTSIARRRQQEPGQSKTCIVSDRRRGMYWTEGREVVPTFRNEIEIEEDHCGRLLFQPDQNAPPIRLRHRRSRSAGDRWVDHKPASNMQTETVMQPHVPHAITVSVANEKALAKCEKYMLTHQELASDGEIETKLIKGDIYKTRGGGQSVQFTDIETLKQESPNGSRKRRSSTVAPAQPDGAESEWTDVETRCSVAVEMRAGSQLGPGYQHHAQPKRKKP

[3] = target: Centromere-associated protein E (Homo sapiens) (UniProt Q02224); test: Inhibition of microtubule-stimulated CENP-E motor domain (1 to 339) (unknown origin) ATPase activity at 6.3 uM
Mus musculus = test: Toxicity in athymic nude BALB/cAJcL mouse xenografted with HCT116 cells assessed as body weight loss at 25 mg/kg, iv administered on days 1,3,5,8,10 and 12 relative to vehicle-treated control; type: organism-based, HCT-116; conditions: in vivo

Chain of Centromere-associated protein E (Homo sapiens) (Q02224 whole entry, the tested form may be a part): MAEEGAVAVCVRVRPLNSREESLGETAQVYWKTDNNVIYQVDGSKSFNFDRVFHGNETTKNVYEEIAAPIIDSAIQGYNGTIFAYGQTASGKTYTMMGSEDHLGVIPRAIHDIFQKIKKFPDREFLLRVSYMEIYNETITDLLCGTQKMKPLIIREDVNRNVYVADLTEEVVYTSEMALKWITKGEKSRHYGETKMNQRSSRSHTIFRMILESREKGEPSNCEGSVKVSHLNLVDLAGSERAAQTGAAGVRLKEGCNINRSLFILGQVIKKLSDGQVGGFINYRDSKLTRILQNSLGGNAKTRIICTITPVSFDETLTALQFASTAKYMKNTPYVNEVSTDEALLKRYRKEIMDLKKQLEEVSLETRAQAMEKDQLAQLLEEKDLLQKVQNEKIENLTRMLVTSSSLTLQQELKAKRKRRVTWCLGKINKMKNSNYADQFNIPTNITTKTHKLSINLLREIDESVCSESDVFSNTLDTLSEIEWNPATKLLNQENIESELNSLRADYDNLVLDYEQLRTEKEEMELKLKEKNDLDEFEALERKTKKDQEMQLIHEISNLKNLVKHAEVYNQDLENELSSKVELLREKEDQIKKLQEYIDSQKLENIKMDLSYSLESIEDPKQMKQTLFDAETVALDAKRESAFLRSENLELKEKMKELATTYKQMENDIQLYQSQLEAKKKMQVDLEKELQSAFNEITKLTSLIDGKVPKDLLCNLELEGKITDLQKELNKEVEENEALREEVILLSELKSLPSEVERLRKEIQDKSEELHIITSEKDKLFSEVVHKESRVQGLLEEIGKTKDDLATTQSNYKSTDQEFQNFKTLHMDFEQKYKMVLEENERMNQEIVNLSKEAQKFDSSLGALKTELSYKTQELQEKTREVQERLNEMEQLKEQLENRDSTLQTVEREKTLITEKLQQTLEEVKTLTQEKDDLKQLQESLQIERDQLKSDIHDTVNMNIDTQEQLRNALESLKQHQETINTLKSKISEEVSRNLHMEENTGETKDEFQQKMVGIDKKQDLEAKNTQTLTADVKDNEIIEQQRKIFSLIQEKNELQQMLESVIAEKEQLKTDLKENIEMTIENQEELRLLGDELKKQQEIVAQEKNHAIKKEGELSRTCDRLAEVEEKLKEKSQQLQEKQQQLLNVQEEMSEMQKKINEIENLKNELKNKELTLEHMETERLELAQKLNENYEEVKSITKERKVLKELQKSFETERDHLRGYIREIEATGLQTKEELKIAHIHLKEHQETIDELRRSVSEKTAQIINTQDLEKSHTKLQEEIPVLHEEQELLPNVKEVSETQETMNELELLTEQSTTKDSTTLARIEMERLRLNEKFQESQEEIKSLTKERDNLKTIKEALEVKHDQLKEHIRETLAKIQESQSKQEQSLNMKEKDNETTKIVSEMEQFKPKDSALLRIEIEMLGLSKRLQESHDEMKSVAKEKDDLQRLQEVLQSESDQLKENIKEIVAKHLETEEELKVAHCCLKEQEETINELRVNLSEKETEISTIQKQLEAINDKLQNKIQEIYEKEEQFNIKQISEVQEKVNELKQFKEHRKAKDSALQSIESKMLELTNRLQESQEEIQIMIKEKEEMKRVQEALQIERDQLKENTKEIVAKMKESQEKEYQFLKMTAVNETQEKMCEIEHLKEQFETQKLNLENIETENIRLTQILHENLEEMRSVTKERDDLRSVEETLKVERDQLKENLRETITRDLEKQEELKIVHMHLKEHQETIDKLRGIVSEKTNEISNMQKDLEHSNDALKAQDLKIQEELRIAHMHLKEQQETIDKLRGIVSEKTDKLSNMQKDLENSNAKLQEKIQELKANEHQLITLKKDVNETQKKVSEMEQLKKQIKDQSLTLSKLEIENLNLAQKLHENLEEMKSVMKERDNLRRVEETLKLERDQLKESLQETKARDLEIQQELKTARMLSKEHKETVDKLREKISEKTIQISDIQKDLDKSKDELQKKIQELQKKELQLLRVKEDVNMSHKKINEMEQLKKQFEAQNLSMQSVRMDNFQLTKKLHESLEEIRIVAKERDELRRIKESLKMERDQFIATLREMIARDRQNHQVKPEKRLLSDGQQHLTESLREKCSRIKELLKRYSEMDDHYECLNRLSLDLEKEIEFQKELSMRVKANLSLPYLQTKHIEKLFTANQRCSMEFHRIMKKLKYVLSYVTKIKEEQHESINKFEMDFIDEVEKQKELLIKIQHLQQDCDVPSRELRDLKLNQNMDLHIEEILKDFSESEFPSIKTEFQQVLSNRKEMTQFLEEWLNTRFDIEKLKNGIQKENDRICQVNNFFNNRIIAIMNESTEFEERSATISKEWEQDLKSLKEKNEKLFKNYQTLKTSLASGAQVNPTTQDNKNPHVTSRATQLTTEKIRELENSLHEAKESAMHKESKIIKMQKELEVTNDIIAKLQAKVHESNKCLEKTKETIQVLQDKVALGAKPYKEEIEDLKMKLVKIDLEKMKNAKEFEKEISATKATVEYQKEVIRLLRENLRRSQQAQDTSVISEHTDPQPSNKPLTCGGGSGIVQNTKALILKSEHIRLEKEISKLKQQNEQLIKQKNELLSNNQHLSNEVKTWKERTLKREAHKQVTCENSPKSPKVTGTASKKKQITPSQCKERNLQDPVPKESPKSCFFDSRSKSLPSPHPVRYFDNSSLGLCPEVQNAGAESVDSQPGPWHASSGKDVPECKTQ

| Structure (SMILES) | pIC50 (HCT-116) | inhibition [1] | inhibition [2] | inhibition [3] | Activity (Mus musculus) |
| --- | --- | --- | --- | --- | --- |
| N[C@@H](CSC1(c2ccc(C(F)(F)F)cc2)c2ccccc2CCc2ccccc21)C(=O)O | 7.96 | inactive | inactive | inactive | Toxic |
| COc1ccc(C2(SC[C@H](N)C(=O)O)c3ccccc3CCc3ccccc32)cc1 | 7.55 | inactive | inactive | inactive | Toxic |

From ChEMBL document CHEMBL3632570, “Structure-Guided Design of Novel l-Cysteine Derivatives as Potent KSP Inhibitors” (ACS Med Chem Lett, 2015)
